Earlier results on one molecule are cited in patent publication US6004792A, “Human lysophospholipase” (Incyte Pharmaceuticals, Inc., priority 1998, dated 1999).

By Vmax is commonly meant the top rate of the reaction or transport when substrate is in excess.

This data set deals with T1, monomeric 24 kD lysophospholipase (LPL) from rat liver (GI 1552244; SEQ ID NO:3) (Rattus norvegicus, UniProt P70470).
T1 construct: isolated a monomeric, 24 kD LPL from rat liver; host or cells: rat liver (enzyme isolated from tissue, Sugimoto et al. 1996)
T1 sequence (P70470 whole entry): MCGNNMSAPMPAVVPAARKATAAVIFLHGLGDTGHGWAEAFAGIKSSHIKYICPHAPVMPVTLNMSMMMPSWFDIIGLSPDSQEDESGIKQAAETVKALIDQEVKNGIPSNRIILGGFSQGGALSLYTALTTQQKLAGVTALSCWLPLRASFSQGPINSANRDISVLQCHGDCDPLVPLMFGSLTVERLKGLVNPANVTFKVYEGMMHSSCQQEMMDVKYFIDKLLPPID
Conditions: substrate 1-palmitoyl-glycero-3-phosphocholine.

Take `CCCCCCCCCCCCCCCC(=O)OCC(O)COP(=O)([O-])OCC[N+](C)(C)C` (stereo not shown) [1-palmitoyl-glycero-3-phosphocholine]: the Vmax is 1.55 µM/min/mg.
